The target of this assay is WRN helicase (Werner syndrome protein) (Homo sapiens, UniProt Q14191). As to the kind of experiment: in vitro WRN helicase. The format is biochemical.

The term IC50 denotes the midpoint of a concentration-inhibition curve.

Chain of WRN helicase (Werner syndrome protein) (Q14191 2-1432): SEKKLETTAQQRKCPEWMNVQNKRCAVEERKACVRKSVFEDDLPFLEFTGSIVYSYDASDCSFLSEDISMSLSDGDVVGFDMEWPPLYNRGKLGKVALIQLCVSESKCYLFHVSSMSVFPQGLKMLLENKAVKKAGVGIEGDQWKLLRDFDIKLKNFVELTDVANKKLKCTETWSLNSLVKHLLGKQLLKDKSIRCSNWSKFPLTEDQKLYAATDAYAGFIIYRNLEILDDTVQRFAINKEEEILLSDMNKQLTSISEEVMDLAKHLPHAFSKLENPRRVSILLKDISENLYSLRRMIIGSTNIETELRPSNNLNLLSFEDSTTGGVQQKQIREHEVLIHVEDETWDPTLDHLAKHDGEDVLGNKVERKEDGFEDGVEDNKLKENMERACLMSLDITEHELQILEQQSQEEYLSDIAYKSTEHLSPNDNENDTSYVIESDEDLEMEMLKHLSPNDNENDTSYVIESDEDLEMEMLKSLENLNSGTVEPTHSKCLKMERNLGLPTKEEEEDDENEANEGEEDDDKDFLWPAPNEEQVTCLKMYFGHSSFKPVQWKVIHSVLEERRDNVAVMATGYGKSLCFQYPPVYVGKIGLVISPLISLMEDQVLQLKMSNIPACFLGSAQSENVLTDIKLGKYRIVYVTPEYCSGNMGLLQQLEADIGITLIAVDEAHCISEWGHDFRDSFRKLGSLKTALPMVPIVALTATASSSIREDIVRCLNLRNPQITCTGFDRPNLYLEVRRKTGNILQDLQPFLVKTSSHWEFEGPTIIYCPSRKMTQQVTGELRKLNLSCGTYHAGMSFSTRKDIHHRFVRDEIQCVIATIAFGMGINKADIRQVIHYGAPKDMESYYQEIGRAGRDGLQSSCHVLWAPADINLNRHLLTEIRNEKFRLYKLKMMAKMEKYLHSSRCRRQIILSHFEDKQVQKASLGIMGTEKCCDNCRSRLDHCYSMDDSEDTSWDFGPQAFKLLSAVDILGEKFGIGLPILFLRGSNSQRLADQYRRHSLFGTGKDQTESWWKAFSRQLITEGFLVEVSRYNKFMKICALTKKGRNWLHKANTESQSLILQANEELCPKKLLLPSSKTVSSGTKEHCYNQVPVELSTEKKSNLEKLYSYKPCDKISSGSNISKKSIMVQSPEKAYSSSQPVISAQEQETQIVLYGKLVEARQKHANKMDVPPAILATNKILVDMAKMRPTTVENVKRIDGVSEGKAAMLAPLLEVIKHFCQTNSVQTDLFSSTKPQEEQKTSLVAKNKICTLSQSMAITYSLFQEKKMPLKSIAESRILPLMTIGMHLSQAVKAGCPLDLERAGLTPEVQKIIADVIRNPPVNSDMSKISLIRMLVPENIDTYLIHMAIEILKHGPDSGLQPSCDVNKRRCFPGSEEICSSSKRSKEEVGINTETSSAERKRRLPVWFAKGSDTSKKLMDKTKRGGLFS

In turn, `CC(C)(CN1C(=O)C(Cl)=C(Cl)C1=O)CN1C(=O)C(Cl)=C(Cl)C1=O` [NSC 617145] returned an IC50 of 230 nM. That is a sub-micromolar value.

Values taken from paper PMC3766423 (Cancer research, 2013).
